Experimental findings from patent US20230096789A1, “PHARMACEUTICAL COMPOSITION FOR INHIBITING INFLAMMATORY RESPONSE COMPRISING HYDROXYUREA” (priority 2020, published 2023) are described below.

Like-named read-outs stand apart in the source and are kept apart here. Bounds are passed on as bounds.

The subject of data set [1] is H1N1 PR8. Kind of data set: In vitro antiviral effect, MTT cell viability in infected MDCK cells. The note with it: 0.001 pfu/cell, 72 hours, hydroxyurea up to 1,561 μg/ml. The data set is classed as cell-based, influenza A virus.
For data set [2], the system named is H3N2 HongKong. The data set is described as above. Format: cell-based, influenza A virus. Particulars: 0.001 pfu/cell, 72 hours, hydroxyurea up to 1,561 μg/ml.
Data set [3] concerns Lee. Described as above. The data set is classed as cell-based, influenza B virus. The note with it: 0.001 pfu/cell, 72 hours, hydroxyurea up to 1,561 μg/ml.
The test system of data set [4] is mice infected with H1N1 influenza A (PR8 strain) virus. Format: in vivo, mice (BALB/c).
For data set [5], the system named is mice infected with the WR strain of vaccinia virus. Format: in vivo, BALB/c mice. Particulars: for survival: WR low (1×10^5 pfu) or high (1×10^7 pfu) dose, HU 50 mg/kg/day i.p. days 0 to 14, G-CSF 25 μg/kg/day i.p. days 0 to 5; for lung tissue histology: compared with other groups.
Data set [6] shares this test system. Format: in vivo. The note with it: WR 1×10^5 pfu; HU 80 mg/kg/day on days 2 to 14, started 2 days after infection.
For data set [7], the system named is MDCK cells. The experiment in a line: Cytotoxicity (CC50) by MTT assay. The note with it: 72 hours.
Data set [8] deals with mice given LPS. Kind of data set: LPS-induced sepsis model (II), survival and ANC (Experimental Example 7). The data set is classed as in vivo, BALB/c mice. The note with it: for survival: until day 12; for ANC: blood on day 12. The method, then: Twenty-one BALB/c mice (about 8 weeks old) were divided into 3 groups (LPS, LPS+HU_30, LPS+HU_60; n=7/group). All mice received intraperitoneal administration of LPS at 10 mg/kg on day 0. The mice of the group (LPS+HU_30) received hydroxyurea (30 mg/kg/day, from day -1 to day 3) once a day, and the mice of the group (LPS+HU_60) received hydroxyurea (60 mg/kg/day, from day -1 to day 3) twice a day. Survival of the mice of each group was measured until day 12 at 3-day intervals, and blood samples were collected on day 12 to check the absolute neutrophil count in blood.

Data set [9] relates to mice given wild-type WR strain of vaccinia virus. The experiment in a line: Histological analysis (H&E) of liver and lung tissues after wild-type WR vaccinia virus (Experimental Example 2.2). Format: in vivo. The note with it: wild-type WR 1×10^7 pfu intranasal, HU 50 mg/kg, G-CSF 25 μg/kg.
Data set [10] relates to mice with sepsis induced by the Western Reserve strain of vaccinia virus. Particulars: mouse, in vivo.
For data set [11], the system named is monkeys with systemic inflammatory syndrome induced by vaccinia virus VV^tk−. The data set is classed as in vivo, cynomolgus monkeys. The method, then:
Male cynomolgus monkeys (n=3) aged 45 to 55 months were subjected to systemic administration of only VV^tk− (1×10^8 pfu), which induces a systemic inflammatory response, or both VV^tk− and hydroxyurea (VV^tk−: 1×10^8 pfu, HU: 80 mg/kg/day and 30 mg/kg/day). Then, toxicity was evaluated by measuring levels of systemic inflammation and pustules, body temperature, body weight, and the like.

In data set [12] the test system is mouse model with sepsis induced by lipopolysaccharide (LPS, from Escherichia coli O55: B5). The experiment in a line: Bacterial LPS-induced sepsis model, survival (Experimental Example 1). The data set is classed as in vivo, mice. The note with it: LPS 10 mg/kg i.p., n=7. How it is done:
To identify whether treatment with hydroxyurea could increase survival through an immune response in a mouse model with sepsis induced by lipopolysaccharide (LPS, from Escherichia coli O55: B5L2880, Sigma), an animal experiment was performed.
Each group consisted of 7 mice, and intraperitoneal administration of LPS was performed at 10 mg/kg on day 0. Two groups excluding a control group were subjected to intraperitoneal administration of hydroxyurea at 30 mg/kg once a day or twice a day for 5 days per one week starting from the day before the treatment with LPS (FIG. 1).

Data set [13] deals with mice infected with H1N1 influenza A virus (maPR8). The experiment in a line: Influenza virus-induced sepsis model (II), body weight and survival (Experimental Example 6). The data set is classed as in vivo, BALB/c mice.
The subject of data set [14] is monkeys with systemic inflammatory syndrome induced by the Western Reserve strain of vaccinia virus.
Setting [15] is: co-administration vs virus only.
[16] abbreviates: WR 1×10^8 pfu + HU, vs virus only.

As for `NC12CC3CC(CC(C3)C1)C2` [AMT, amantadine], the antiviral effect result in data set [1], in data set [2] and in [3] was “next clear effect” each time.
Take `NC(=O)c1ncn([C@@H]2O[C@H](CO)[C@@H](O)[C@H]2O)n1` [ribavirin]: the antiviral effect entry in data set [1], in data set [2] and in data set [3] was “next clear effect” throughout.
Consider `CCOC(=O)C1=C[C@@H](OC(CC)CC)[C@H](NC(C)=O)[C@@H](N)C1` [Tamiflu, oseltamivir], for which the survival result in data set [4] (mouse, in vivo) is recorded as “survived regardless of the concentration”.
As to `NC(=O)NO` [hydroxyurea], the “absolute neutrophil count (ANC)” value was “decreased absolute neutrophil count” in data set [5] (WR high dose (1×10^7 pfu), HU 50 mg/kg/day); “decreased on average and remained stable” in data set [14] (co-administration group, blood). The survival result is listed as “increased survival” in data set [5]; “remarkably increased survival” in data set [8] (LPS+HU_30: 30 mg/kg/day, day -1 to day 3, once a day); “remarkably increased survival” in data set [8] (LPS+HU_60: 60 mg/kg/day, day -1 to day 3, twice a day); 70% in [13] (hydroxyurea 50 mg/kg q.d. days -2 to 14, until day 20, n=7). In data set [5], the lung tissue histology result is “improved aspect”. Moreover, the “infection by immunofluorescence staining for protein A56 (bronchi)” value in [5] (lung tissue, between saline, G-CSF and HU groups) is “no significant difference between the three groups”. In addition, the “protective effect (survival, body weight)” value in data set [6] is listed as “protective effect”. Also, the CC50 in [7] is 1,561 μg/ml. Also, the ANC result in data set [8] (LPS+HU_30) and in data set [8] (LPS+HU_60) was “decreased ANC” each time. The “severity in leakage and exudate levels in the alveoli and ischemic change level in the liver tissue (order of groups)” value in [9] was “in the order of the group having received hydroxyurea, the group having received G-CSF, and the control group”. Also, the “number of virus particles in blood” value in data set [10] is recorded as “highest number of virus particles”; in [14] (day 8 after virus administration, co-administration vs virus only), “no significant difference”. Besides, the “survival until day 21” value in data set [10] was 40%. In addition, the “systemic inflammation and skin rash lesions (pustules)” value is “remarkably weakened systemic inflammation and inhibition of skin rash lesions such as pustules” in data set [11] (VV^tk− 1×10^8 pfu + HU 80 mg/kg/day and 30 mg/kg/day, vs virus only); “remarkably weakened systemic inflammation and inhibition of skin rash lesions such as pustules” in data set [14] (WR 1×10^8 pfu + HU 80 mg/kg/day and 30 mg/kg/day, vs virus only). Moreover, the absolute neutrophil count entry in [11] (co-administration) is “decreased on average and remained stable”. Also, the “number of virus particles” value in data set [11] (co-administration) was “decreased on average and remained stable”. Also, the body temperature result in [11] (setting [15]) and in [14] (setting [16]) was “did not show any significant increase in body temperature” throughout. Further, the body weight loss entry in data set [11] (setting [15]) and in [14] (setting [16]) was “no difference in body weight loss” in each case. Moreover, the “body weight / condition course” value in [4] (mouse, in vivo) is “returned to a healthy condition on day 18”. For the same molecule, the surviving mice in data set [4] (n=7) was determined as 5 mice. Also, the antiviral effect result in data set [1], in data set [2] and in data set [3] was “did not show any antiviral effect” throughout. For the same molecule, the “survival until day 12” value came to 17% in data set [12] (hydroxyurea 30 mg/kg i.p. once a day) and 43% in [12] (hydroxyurea 30 mg/kg i.p. twice a day). Also, the body weight entry in data set [13] (hydroxyurea 50 mg/kg q.d., loss until day 10) is “recovered to the initial weight on day 20”. Besides, the “absolute lymphocyte count (ALC)” value in data set [14] (co-administration group, blood) is “decreased on average and remained stable”. Also, in data set [14] (co-administration group, blood), the “white blood cell count (WBC)” value was “decreased on average and remained stable”.

B1: G-CSF (protein, UniProt P09919 31-207, looked up)
Granulocyte …: TPLGPASSLPQSFLLKCLEQVRKIQGDGAALQEKLVSECATYKLCHPEELVLLGHSLGIPWAPLSSCPSQALQLAGCLSQLHSGLFLYQGLLQALEGISPELGPTLDTLQLDVADFATTIWQQMEELGMAPALQPTQGAMPAFASAFQRRAGGVLVASHLQSFLEVSYRVLRHLAQP
B1: in data set [5], the survival result is “decreased survival” and the lung tissue histology entry is given as “lung edema was observed”. Also, in [5] (WR low or high dose, G-CSF 25 μg/kg/day), the “absolute neutrophil count (ANC)” value is listed as “remarkably increased absolute neutrophil count”. In data set [9], the “severity in leakage and exudate levels in the alveoli and ischemic change level in the liver tissue (order of groups)” value is “in the order of the group having received hydroxyurea, the group having received G-CSF, and the control group”. For the same molecule, in [10], the “time within which all mice died after administration of the WR strain” value was no more than 14 days.
